From ChEMBL document CHEMBL1131625, “Neurosteroid analogues. 6. The synthesis and GABAA receptor pharmacology of enantiomers of dehydroepiandrosterone sulfate, pregnenolone sulfate, and (3alpha,5beta)-3-hydroxypregnan-20-one sulfate” (J Med Chem, 1998)
pIC50, pKi: −log10 of the molar value.

Assays:
[1] = target: GABA-A receptor; anion channel; test: Inhibitory activity against Gamma-aminobutyric acid A (GABA-A) receptor of rat hippocampal neurons; assay type: tissue-based, Hippocampus
Rattus norvegicus [2] = organism: Rattus norvegicus; test: Inhibition of GABA-mediated currents by compound; assay type: functional
Rattus norvegicus [3] = organism: Rattus norvegicus; test: The Non-competitive block of GABA-mediated currents in cultured neurons from rat ventral mesencephalon; assay type: functional

Row | Structure (SMILES) | pIC50 [1] | pKi (Rattus norvegicus [2]) | pKi (Rattus norvegicus [3])
1 | CC(=O)[C@@H]1CC[C@@H]2[C@H]3CC=C4C[C@H](OS(=O)(=O)O)CC[C@@]4(C)[C@@H]3CC[C@]21C | 4.12 |  | 
2 | CC(=O)[C@@H]1CC[C@H]2[C@@H]3CC[C@H]4C[C@@H](OS(=O)(=O)O)CC[C@@]4(C)[C@H]3CC[C@@]12C |  | 4.33 | 
3 | C[C@@]12CC[C@@H]3[C@H](CC=C4C[C@H](OS(=O)(=O)O)CC[C@]43C)[C@H]1CCC2=O | 4.10 |  | 4.09
4 | CC(=O)[C@H]1CC[C@H]2[C@@H]3CC[C@@H]4C[C@H](OS(=O)(=O)O)CC[C@]4(C)[C@H]3CC[C@]12C | 4.41 | 4.41 | 
5 | CC(=O)[C@H]1CC[C@H]2[C@@H]3CC=C4C[C@@H](OS(=O)(=O)O)CC[C@]4(C)[C@H]3CC[C@]12C | 4.09 |  | 
6 | C[C@]12CC[C@H](OS(=O)(=O)O)CC1=CC[C@@H]1[C@@H]2CC[C@]2(C)C(=O)CC[C@@H]12 | 4.96 |  | 4.89
